Experimental data from patent US6835382B2, “Ii peptide therapeutics to enhance antigen presentation” (University of Massachusetts, priority 1996, dated 2004).
Non-standard residues stand in square brackets, D forms with d. Cit = NC(=O)NCCC[C@H](N)C(=O)O; Orn = NCCC[C@H](N)C(=O)O

Key:
[1] = system: murine E^k MHC class II allele; assay: antigenic peptide prepulse assay, E^k allele (fixed APC prepulsed with PGCC81-104); type: cell-based; details: for Activity in antigenic peptide prepulse assay, E^k (baseline = 1.0): prepulse 1.25 μM antigenic peptide; for Activity in antigenic peptide prepulse assay, E^k (baseline without AE peptide = 1.00): Table 19, prepulse 20 μM PGCC81-104
Method: (§1) In a second type of assay, the “peptide prepulse assay”, the antigenic peptide is incubated with paraformaldehyde-fixed APC for 6 h. The APC are washed and incubated for 24 h with the AE101 series homolog and the T cell hybridoma specific for the antigenic peptide. After that incubation, an aliquot of the culture supernatant is transferred to a second culture to measure the relative degree of T hybridoma stimulation, as reflected in the effect of released interleukins on the growth of an interleukin-dependent, indicator cell line, as described above.
(§2) The two above described assays measure different aspects of the molecular mechanism of the AE101 series of peptides. In the “simultaneous assay”, AE101 series peptides are thought to induce the release of endogenously bound peptides and to permit the binding of the second, specific antigenic peptide which is relatively abundant in the culture fluid. The AE101 series peptides enhance antigenic peptide-specific T cell responses in simultaneous assays. In the “peptide prepulse” assay, the specific antigenic peptide becomes bound to MHC class II molecules on the surface of the fixed APC during the 6 h prepulse incubation. The effect of the AE101 series homologs is then thought to release that antigenic peptide, resulting in an apparent suppression of the immune response.
(§3) The AE101 series peptides are thought to contact the MHC class II molecules at a discrete site outside the antigenic peptide-binding groove. AE101 peptide binding to this “Ii-KEY” site is thought to induce a conformational change in the MHC class II molecules accelerating the dissociation of previously bound antigenic peptide. […] The AE101 series peptides thus inhibit antigenic peptide-specific T cell responses in the “peptide prepulse” assays.
(§4) Antigenic peptide-specific T cell activation was measured by the following procedure. Mitomycin C-treated A20 cells (A^dE^d) or CH27 cells APC (A^kE^k) were generated by incubating 5×10^6 cells/mL for 20 min at 37° C. with 0.025 mg/mL of mitomycin C (Sigma) in Dulbecco's Modified Eaglel's Medium (DMEM)/10 mM N-2(hydroxyethylpiperazine-N″[2-ethanesulfonic acid] (HEPES), followed by two washes with four volumes of DMEM-5% fetal calf serum (FCS), 10 mM HEPES. Fixed APC were generated by treating 1×10^6 cells/mL for 5 min with 0.5% paraformaldehyde in PBS (pH 7.2), followed by two washes with four volumes of DMEM-10% FCS, 10 mM HEPES. T cell hybridomas were irradiated 2200 rads before each assay.
(§5) The “peptide prepulse assay” was carried out under essentially the same conditions as described for the “simultaneous assay” with the following modifications. Fixed APC were first incubated for 6 h at 1×10^6 cells/mL in complete DMEM-5% FCS in 24-well microculture plates (1 mL/well) with antigenic peptide, followed by four washes with 10 volumes of DMEM-5% FCS. The cells were then exposed to varying concentrations of AE101 series peptide (64 μM, 16 μM, 4 μM, and 1 μM) for 24 h in the presence of the T cell hybridoma specific to the antigenic peptide. Interleukin release from these cultures was measured by proliferation of HT-2 cells to interleukins in supernatants transferred from the primary culture. Generally, a single dose of 64 μM of each AE101 series peptide was used. The baseline T cell response was measured by culturing T hybridoma cells with the antigenic peptide-prepulsed APC in the absence of AE101 series peptides.
Table 19: Activities of C-terminal truncation analogs of AE101 in an antigenic peptide prepulse assay. […] Paraformaldehyde-treated APC (fixed APC) expressing MHC class II molecules were incubated with antigenic peptide for 6 h (HEL106-116 for E^d and PGCC81-104 for E^k). After this incubation, the prepulsed APC were washed and cultured with T hybridoma cells and AE101 series peptides. The antigenic peptide concentration during the prepulse was 12 μM for Ed and 20 μM for E^k. The AE101 series peptide concentrations were 64 μM for E^d and 16 μM for E^k. […]

[2] = target: T1, murine E^d MHC class II allele (Mus musculus, UniProt P01904+P01915); assay: antigenic peptide prepulse assay, E^d allele (fixed APC prepulsed with HEL106-116); type: cell-based; design: The A20 and CH27 B cell lymphoma lines express H-2^d and H-2^k alleles, respectively; endogenous in cells; host or cells: A20 B cell lymphoma (mitomycin C-treated or paraformaldehyde-fixed); details: for Activity in antigenic peptide prepulse assay, E^d (baseline = 1.00) / Activity in antigenic peptide prepulse assay, E^d (baseline = 1.0) / Activity in antigenic peptide prepulse assay, E^d (baseline without AE peptide = 1.00): AE peptide 64 μM; for Activity in antigenic peptide prepulse assay, E^d (baseline without AE peptide = 1.00): Table 19, prepulse 12 μM HEL106-116
T1 sequence (P01904 26-255): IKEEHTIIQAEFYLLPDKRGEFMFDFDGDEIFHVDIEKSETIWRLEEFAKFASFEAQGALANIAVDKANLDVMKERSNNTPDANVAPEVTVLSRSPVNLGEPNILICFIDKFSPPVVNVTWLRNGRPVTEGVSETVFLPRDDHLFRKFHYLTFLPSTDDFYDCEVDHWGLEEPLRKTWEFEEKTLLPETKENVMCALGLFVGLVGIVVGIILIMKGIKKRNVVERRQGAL
T1 sequence (P01915 27-264 limits assumed): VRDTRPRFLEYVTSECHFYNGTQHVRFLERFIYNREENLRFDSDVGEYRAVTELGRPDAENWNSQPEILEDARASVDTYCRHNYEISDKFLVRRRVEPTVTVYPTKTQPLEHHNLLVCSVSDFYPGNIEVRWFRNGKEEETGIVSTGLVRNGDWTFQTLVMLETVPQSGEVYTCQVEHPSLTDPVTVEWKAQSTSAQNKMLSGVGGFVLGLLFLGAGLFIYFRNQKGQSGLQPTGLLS
Method: as §1, §2, §3, §4, §5
[…] […] Paraformaldehyde-treated APC (fixed APC) expressing MHC class II molecules were incubated with antigenic peptide for 6 h (HEL106-116 for E^d and PGCC81-104 for E^k). After this incubation, the prepulsed APC were washed and cultured with T hybridoma cells and AE101 series peptides. […] The AE101 series peptide concentrations were 64 μM for E^d and 16 μM for E^k. The dilutions of supernatant taken into the HT-2 cell assay were 1:4 for Ed and 1:2 for E^k.

[3] = Table 24, AE peptide 64 μM, prepulse 0.625 μM antigenic peptide, supernatant 1:8
[4] = Table 24, prepulse 24 μM antigenic peptide, supernatant 1:4
[5] = Table 25, AE peptide 64 μM, prepulse 2.5 μM antigenic peptide, supernatant 1:10
[6] = Table 26, AE peptide 64 μM, supernatant 1:8
[7] = Table 25, prepulse 24 μM antigenic peptide, supernatant 1:4
[8] = Table 26, prepulse 24 μM antigenic peptide, supernatant 1:2
[9] = AE peptide 16 μM, supernatant 1:2
[10] = Table 20, AE peptide 16 μM, prepulse 20 μM antigenic peptide, supernatant 1:2
[11] = Table 20, prepulse 3 μM antigenic peptide, supernatant 1:2

**Q.** For Ac-LRMK (mL) PK-NH2 [AE175], which “Activity in antigenic peptide prepulse assay, E^k (baseline = 1)” value ([1]; Table 23, as printed: antigenic peptide prepulse 64 μM, AE peptide 1:8 μM, supernatant 1:2) is on record?
**A.** The value was 0.87.

**Q.** And the “Activity in antigenic peptide prepulse assay, E^k (baseline = 1.00)” value (shortened to “Activity … E^k (baseline = 1.00)”) [1, 3]?
**A.** The value was 0.87.

**Q.** What about the “Activity in antigenic peptide prepulse assay, E^d (baseline = 1)” value ([2]; Table 23, as printed: antigenic peptide prepulse 64 μM, AE peptide 1:4 μM, supernatant 1:8) of the same substance?
**A.** The value was 0.7.

**Q.** And the “Activity in antigenic peptide prepulse assay, E^d (baseline = 1.00)” value (“Activity … E^d (baseline = 1.00)” below) [2, 4]?
**A.** Its value is 0.70.

**Q.** For “Ac-LRMK Y PK-NH2 (Ac-LRMKYPK-NH2; not fully specified; printed as Ac-LRMK Y PK-NH2) [AE235]”, which “Activity … E^k (baseline = 1.00)” value [1, 3] is on record?
**A.** The value was 0.80.

**Q.** What about the “Activity … E^k (baseline = 1.00)” value [1, 5] of the same substance?
**A.** The value was 0.76.

**Q.** What about the “Activity in antigenic peptide prepulse assay, E^k (baseline = 1.0)” value (from here on “Activity … E^k (baseline = 1.0)”) [1, 6] of the same substance?
**A.** The value was 0.60.

**Q.** And the “T cell response relative to baseline without AE peptide (None = 1.0), E^k” value ([1]; Table 27, antigenic peptide prepulse 1.25 μM, AE101 series peptide 64 μM, HT-2 supernatant dilution 1:8)?
**A.** Its value is 0.83.

**Q.** What about the “Activity … E^k (baseline = 1.0)” value ([1]; Table 28, AE peptide 64 μM, supernatant 1:4) of the same substance?
**A.** The value was 0.80.

**Q.** What about the “Activity … E^d (baseline = 1.00)” value [2, 4] of the same substance?
**A.** Its value is 0.30.

**Q.** What about the “Activity … E^d (baseline = 1.00)” value [2, 7] of the same substance?
**A.** The value was 0.25.

**Q.** What about the “Activity in antigenic peptide prepulse assay, E^d (baseline = 1.0)” value (from here on “Activity … E^d (baseline = 1.0)”) [2, 8] of the same substance?
**A.** The value was 0.23.

**Q.** What about the “T cell response relative to baseline without AE peptide (None = 1.0), E^d” value ([2]; Table 27, antigenic peptide prepulse 24 μM, AE101 series peptide 64 μM, HT-2 supernatant dilution 1:8) of the same substance?
**A.** Its value is 0.40.

**Q.** What about the “Activity … E^d (baseline = 1.0)” value ([2]; Table 28, prepulse 24 μM antigenic peptide, supernatant 1:4) of the same substance?
**A.** The value was 0.30.

**Q.** How did the “Activity in antigenic peptide prepulse assay, E^k (baseline without AE peptide = 1.00)” value [1, 9] turn out when Ac-LRMKLPKPPK-NH2 [AE168] was run?
**A.** The value was 0.01.

**Q.** And the “Activity in antigenic peptide prepulse assay, E^d (baseline without AE peptide = 1.00)” value ([2]; supernatant 1:4)?
**A.** The value was 0.10.

**Q.** With Ac-Y E MKLPKSAK-NH2 [AE136] as the substance, how does the “Activity … E^k (baseline = 1.00)” value [1, 10] read?
**A.** Its value is 0.97.

**Q.** What about the “Activity … E^d (baseline = 1.00)” value [2, 11] of the same substance?
**A.** The value was 0.54.

**Q.** With Ac-L r MKLPK-NH2 [AE161] as the substance, how does the “Activity … E^k (baseline = 1.00)” value ([1]; Table 22, AE peptide 16 μM, prepulse 20 μM antigenic peptide, supernatant 1:2) read?
**A.** Its value is 0.85.

**Q.** What about the “Activity … E^d (baseline = 1.00)” value ([2]; Table 22, prepulse 6 μM antigenic peptide, supernatant 1:8) of the same substance?
**A.** Its value is 0.30.

**Q.** With Ac-L[Cit]NKLPK-NH2 [AE343] as the substance, how does the “Activity … E^k (baseline = 1.00)” value [1, 5] read?
**A.** The value was 0.90.

**Q.** And the “Activity … E^d (baseline = 1.00)” value [2, 7]?
**A.** The value was 0.55.

**Q.** Ac-YRM-NH2 [AE118] was tested. Which “Activity in antigenic peptide prepulse assay, E^k (baseline without AE peptide = 1.00)” value [1, 9] did it give?
**A.** The value was 0.35.

**Q.** What about the “Activity in antigenic peptide prepulse assay, E^d (baseline without AE peptide = 1.00)” value ([2]; supernatant 1:4) of the same substance?
**A.** Its value is 0.68.

**Q.** What does the source list for Ac-YAMKLPKSAK-NH2 [AE121]?
**A.** Activity in antigenic peptide prepulse assay, E^k (baseline = 1.00) [1, 10]: 0.59; Activity in antigenic peptide prepulse assay, E^d (baseline = 1.00) [2, 11]: 0.53

**Q.** Which “Activity … E^k (baseline = 1.00)” value [1, 10] does the source give for Ac-Y[Orn]MKLPKSAK-NH2 [AE130] here?
**A.** Its value is 0.66.

**Q.** And the “Activity … E^d (baseline = 1.00)” value [2, 11]?
**A.** Its value is 0.79.

**Q.** Which results are given for Ac-LRMKLPKPPP-NH2 [AE167]?
**A.** Activity in antigenic peptide prepulse assay, E^k (baseline without AE peptide = 1.00) [1, 9]: 0.01; Activity in antigenic peptide prepulse assay, E^d (baseline without AE peptide = 1.00) ([2]; supernatant 1:4): 0.23

**Q.** Which results are given for YRMKLPKSAKPVSQMR [AE101]?
**A.** Activity in antigenic peptide prepulse assay, E^k (baseline = 1.00) [1, 10]: 0.89; Activity in antigenic peptide prepulse assay, E^d (baseline = 1.00) [2, 11]: 0.25

**Q.** How did the “Activity … E^k (baseline = 1.0)” value [1, 6] turn out when “Ac-LRM M LPK-NH2 (Ac-LRMMLPK-NH2) [AE220]” was run?
**A.** The value was 0.92.

**Q.** What about the “Activity … E^d (baseline = 1.0)” value [2, 8] of the same substance?
**A.** Its value is 0.73.
